Columns and labels:
[1] = biological target: Bromodomain-containing protein 4 (Homo sapiens) (UniProt O60885); assay: Inhibition of recombinant human BRD4 (44 to 168) residues expressed in Escherichia coli at 1 uM using H4 peptide as substrate preincubated for 15 mins followed by substrate addition and measured after 60 mins by Alphascreen assay relative to control
EOL1 = assay: Antiproliferative activity against human EOL-1 cells; type: functional, cell-based
[2] = biological target: T1, Bromodomain-containing protein 9 (Homo sapiens) (UniProt Q9H8M2); assay: Inhibition of BRD9 (unknown origin) at 1 uM using H4 peptide as substrate preincubated for 15 mins followed by substrate addition and measured after 60 mins by Alphascreen assay relative to control
T1 sequence (whole entry): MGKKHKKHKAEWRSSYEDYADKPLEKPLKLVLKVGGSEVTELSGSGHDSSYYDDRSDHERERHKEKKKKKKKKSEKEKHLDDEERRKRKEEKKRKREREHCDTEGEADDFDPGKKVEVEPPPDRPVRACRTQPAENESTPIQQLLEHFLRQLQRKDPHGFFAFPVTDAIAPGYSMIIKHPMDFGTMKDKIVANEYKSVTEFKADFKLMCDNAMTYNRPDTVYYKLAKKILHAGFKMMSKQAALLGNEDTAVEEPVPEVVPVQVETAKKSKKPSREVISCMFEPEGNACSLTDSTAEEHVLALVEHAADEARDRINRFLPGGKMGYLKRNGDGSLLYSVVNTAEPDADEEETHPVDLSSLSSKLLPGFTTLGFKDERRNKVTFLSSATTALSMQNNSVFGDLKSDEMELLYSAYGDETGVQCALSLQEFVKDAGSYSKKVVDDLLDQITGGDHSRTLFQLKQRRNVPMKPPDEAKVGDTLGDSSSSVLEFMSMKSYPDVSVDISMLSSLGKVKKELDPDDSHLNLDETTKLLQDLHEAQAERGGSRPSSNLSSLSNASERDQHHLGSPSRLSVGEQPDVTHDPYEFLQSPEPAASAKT

[3] = biological target: T2, Bromodomain-containing protein 9 (Homo sapiens, UniProt Q9H8M2); assay: Inhibition of BRD9 (unknown origin) using H4 peptide as substrate preincubated for 15 mins followed by substrate addition and measured after 60 mins by Alphascreen assay
T2 sequence (Q9H8M2 whole entry): T1 sequence (whole entry)

A549 = assay: Antiproliferative activity against human A549 cells; type: functional, cell-based

inhibition [1] [%] | inhibition [2] [%] | IC50 [3] [nM] | IC50 (A549) [nM] | Compound | IC50 (EOL1) [nM]
100 |  |  |  | CCS(=O)(=O)Nc1ccc(Oc2ccc(F)cc2)c(-c2cn(C)c(=O)c3cncn23)c1 | 
-2 | 91 | 465 | > 10000 | C/C=C/Cn1cc(-c2ccc(C(=O)N3CCOCC3)c(Cl)c2)n2cncc2c1=O | 8170
 | 52 | 840 |  | C/C=C/Cn1cc(-c2ccc(C(=O)N3CCN(S(C)(=O)=O)CC3)cc2Cl)n2cncc2c1=O | 
 | 16 | 3010 |  | COc1cccc(-c2cn(C)c(=O)c3cncn23)c1 | 
-3 | 80 | 557 | > 10000 | C/C=C/Cn1cc(-c2ccc(C(=O)N3CCN(C)CC3)c(Cl)c2)n2cncc2c1=O | 7030
 | 18 | 2330 |  | Cn1cc(-c2ccc(C(=O)N3CCOCC3)cc2)n2cncc2c1=O | 
 | 48 | 827 |  | CCCCn1cc(-c2ccc(C(=O)N3CCOCC3)c(Cl)c2)n2cncc2c1=O | 
 | 87 to 90 |  |  | CCOC(=O)Nc1cc(-c2ccc(C)c(NS(C)(=O)=O)c2)nn2c(C)nnc12 | 
 | 68 | 730 |  | CCCCn1cc(-c2ccc(C(=O)N3CCNCC3)c(Cl)c2)n2cncc2c1=O | 
 | 6 | 7410 |  | Cn1cc(-c2cccc(C(F)(F)F)c2)n2cncc2c1=O | 
 | 38 | 967 |  | C/C=C/Cn1cc(-c2ccc(C(=O)N3CCOCC3)c(F)c2)n2cncc2c1=O | 
 | 27 | 1500 |  | Cn1cc(-c2ccc(C(=O)N3CCOCC3)c(Cl)c2)n2cncc2c1=O | 
-5 | 94 | 262 | 7150 | C/C=C/Cn1cc(-c2ccc(C(=O)N3CCC(C(N)=O)CC3)c(Cl)c2)n2cncc2c1=O | 3420
 | 21 |  |  | CCCCn1cc(-c2ccc(C(=O)NC3CCS(=O)(=O)CC3)c(Cl)c2)n2cncc2c1=O | 
 | 5 |  |  | CCn1cc(-c2ccc(C(=O)N3CCOCC3)c(Cl)c2)n2cncc2c1=O | 
 | 23 |  |  | CCCn1cc(-c2ccc(C(=O)NC3CCS(=O)(=O)CC3)c(Cl)c2)n2cncc2c1=O | 
-6 | 99 | 35 | 6120 | C/C=C/Cn1cc(-c2ccc(C(=O)N3CCNCC3)c(Cl)c2)n2cncc2c1=O | 1760
-5 | 100 | 480 | > 10000 | C/C=C/Cn1cc(-c2ccc(C(=O)NC3CCS(=O)(=O)CC3)c(Cl)c2)n2cncc2c1=O | 5340
 | 83 | 802 |  | CCn1cc(-c2ccc(C(=O)N3CCNCC3)c(Cl)c2)n2cncc2c1=O | 
 | 42 | 763 |  | C/C=C/Cn1cc(-c2ccc(C(=O)N3CCOCC3)cc2Cl)n2cncc2c1=O | 
 | 7 | 7210 |  | Cn1cc(-c2ccccc2)n2cncc2c1=O | 
 | 71 | 652 |  | C/C=C/Cn1cc(-c2ccc(C(=O)N3CCN(S(C)(=O)=O)CC3)c(F)c2)n2cncc2c1=O | 
-4 | 87 | 438 | 8230 | C/C=C/Cn1cc(-c2ccc(C(=O)N3CCCC3)c(Cl)c2)n2cncc2c1=O | 5820
 | 75 | 1020 |  | CCn1cc(-c2ccc(C(=O)NC3CCS(=O)(=O)CC3)c(Cl)c2)n2cncc2c1=O | 
-5 | 94 | 103 | 6630 | C/C=C/Cn1cc(-c2ccc(C(=O)N3CCN(S(C)(=O)=O)CC3)c(Cl)c2)n2cncc2c1=O | 2290
 | 86 | 930 |  | CCCn1cc(-c2ccc(C(=O)N3CCNCC3)c(Cl)c2)n2cncc2c1=O | 
